Like-named read-outs stand apart in the source and are kept apart here.
Experiments:
κ opioid receptor [1] = molecular target: T1, κ opioid receptor (Homo sapiens, UniProt P41145); test: κ-opioid receptor [35S]GTPγS functional assay, HEK-293 or CHO cells; type: biochemical; set-up: expressed in transfected cells; host or cells: U-2 OS (in-house membranes); details: for Emax: relative to U69,593
Experimental: Membranes from recombinant HEK-293 cells, CHO or U-2 OS cells expressing the recombinant human κ opioid receptor (κ) were prepared by lysing cells in ice cold hypotonic buffer (2.5 mM MgCl2, 50 mM HEPES, pH 7.4) (10 mL/10 cm dish) followed by homogenization with a tissue grinder/Teflon pestle. Membranes from a cell line naturally expressing kappa opioid receptors can also be used. Membranes were collected by centrifugation at 30,000×g for 15 min at 4° C. and pellets were resuspended in hypotonic buffer to a final concentration of 1-3 mg/mL. Protein concentrations were determined using the BioRad protein assay reagent with bovine serum albumen as standard. Aliquots of κ receptor membranes were stored at −80° C.
Plates were incubated for 30 min at a temperature of about 25° C. with shaking.

κ opioid receptor [2] = molecular target: T1, κ opioid receptor; test: biochemical; type: binding; set-up: expressed in transfected cells; host or cells: HEK 293 (in-house membrane prep); details: HEK-293 or CHO cells
μ-opioid receptor [3] = molecular target: T2, μ-opioid receptor (Homo sapiens, UniProt P35372); test: μ-opioid receptor [35S]GTPγS functional assay, HEK-293 or CHO cells; details: for Emax: read-out: GTPγS μ Emax
μ-opioid receptor [4] = molecular target: T2, μ-opioid receptor; test: μ-opioid receptor [35S]GTPγS functional assay, U-2 OS cells; type: biochemical; set-up: expressed in transfected cells; host or cells: U-2 OS; details: for Emax: read-out: GTPγS μ Emax
[5] = U-2 OS cells, relative to DAMGO
[6] = HEK-293 or CHO cells, read-out: GTPγS κ EC50
[7] = U-2 OS cells, read-out: GTPγS μ EC50
[8] = HEK-293 or CHO cells, bound in μM, read-out: GTPγS κ EC50

T2 sequence (P35372 whole entry, species assumed): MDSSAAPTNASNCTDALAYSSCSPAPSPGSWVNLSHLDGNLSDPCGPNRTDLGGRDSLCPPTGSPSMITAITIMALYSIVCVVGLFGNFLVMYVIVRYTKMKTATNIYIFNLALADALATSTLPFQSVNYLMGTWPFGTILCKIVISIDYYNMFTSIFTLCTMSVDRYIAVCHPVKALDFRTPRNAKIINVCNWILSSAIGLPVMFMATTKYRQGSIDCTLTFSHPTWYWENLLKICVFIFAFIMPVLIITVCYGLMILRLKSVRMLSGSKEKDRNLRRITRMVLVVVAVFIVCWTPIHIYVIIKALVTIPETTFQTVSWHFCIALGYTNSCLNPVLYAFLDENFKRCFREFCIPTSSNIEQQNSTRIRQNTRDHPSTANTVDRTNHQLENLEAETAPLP
T1 sequence (P41145 whole entry): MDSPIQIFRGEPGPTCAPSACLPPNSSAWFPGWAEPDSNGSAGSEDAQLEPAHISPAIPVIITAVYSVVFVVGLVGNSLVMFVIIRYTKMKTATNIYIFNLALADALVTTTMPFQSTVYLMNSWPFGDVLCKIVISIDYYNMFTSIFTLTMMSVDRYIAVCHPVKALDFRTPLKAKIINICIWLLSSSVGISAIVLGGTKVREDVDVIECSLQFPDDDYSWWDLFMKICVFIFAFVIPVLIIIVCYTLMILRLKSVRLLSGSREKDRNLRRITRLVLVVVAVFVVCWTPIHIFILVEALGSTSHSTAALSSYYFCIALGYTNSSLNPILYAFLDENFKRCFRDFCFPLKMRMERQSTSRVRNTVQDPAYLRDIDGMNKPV

Compound	EC50 (κ opioid receptor [1]) [µM]	Ki (κ opioid receptor [2]) [nM]	EC50 (μ-opioid receptor [3]) [nM]	Emax (μ-opioid receptor [3]) [%]	Emax (κ opioid receptor [1]; HEK-293 or CHO cells) [%]	EC50 (μ-opioid receptor [4]; GTPγS μ EC50, U-2 OS cells) [µM]	Emax (μ-opioid receptor [4]; [5]) [%]	EC50 (κ opioid receptor [1]; [6]) [µM]	EC50 (μ-opioid receptor [4]; [7]) [µM]	EC50 (κ opioid receptor [1]; [8]) [µM]	GTPγS μ Emax (μ-opioid receptor [4]; [5]) [%]	EC50 (μ-opioid receptor [4]; U-2 OS cells, bound in μM, read-out: GTPγS μ EC50) [µM]
CN1CC[C@]2(C)c3cc(O)ccc3CC1[C@@H]2COc1ncc([C@H](O)CO)cc1Cl [Compound 43, (1S)-1-(5-chloro-6-(((6S,11R)-8-hydroxy-3,6-dimethyl-1,2,3,4,5,6-hexahydro-2,6-methanobenzo[d]azocin-11-yl)methoxy)pyridin-3-yl)ethane-1,2-diol]	> 20	516 ± 126	3390 ± 63.4	24.7 ± 3.28								
CN(C(=O)/C=C/c1ccoc1)[C@@H]1[C@H]2Cc3ccc(O)cc3[C@@]1(C)CCN2CC1CC1 [Compound 77, (E)-N-((2R,6R,11S)-3-(cyclopropylmethyl)-8-hydroxy-6-methyl-1,2,3,4,5,6-hexahydro-2,6-methanobenzo[d]azocin-11-yl)-3-(furan-3-yl)-N-methylacrylamide]	> 20	4.3 ± 0.91	144 ± 11	56.5 ± 2.02	-1	0.029 ± 0.00086	77.7 ± 0.88					
CN(C(=O)Nc1ccc(C#N)cc1)C1C2Cc3ccc(O)cc3[C@@]1(C)CCN2CCc1ccccc1 (stereo in doubt) [Compound 87, 3-(4-cyanophenyl)-1-((2R,6R,11S)-8-hydroxy-6-methyl-3-phenethyl-1,2,3,4,5,6-hexahydro-2,6-methanobenzo[d]azocin-11-yl)-1-methylurea]		1.21 ± 0.24	5.29 ± 1.1	96.3 ± 2.96	10.8 ± 1.49		99.3 ± 2.03	0.024 ± 0.00194	0.00208 ± 0.00012			
CN1CC[C@]2(C)c3cc(O)ccc3C[C@@H]1[C@@H]2N(C)C(=O)c1ccccc1 [Compound 39, N-((2R,6R,11R)-8-hydroxy-3,6-dimethyl-1,2,3,4,5,6-hexahydro-2,6-methanobenzo[d]azocin-11-yl)-N-methylbenzamide]		82 ± 10.4	321 ± 22.2	89.8 ± 5.39	-1		101 ± 3.76		0.0183 ± 0.00122	> 20		
COc1ccc2c(c1)[C@@]1(C)CCN(C)C(C2)[C@]1(O)c1cccc(C(N)=O)c1 [Compound 63, 3-((6R,11S)-11-hydroxy-8-methoxy-3,6-dimethyl-1,2,3,4,5,6-hexahydro-2,6-methanobenzo[d]azocin-11-yl)benzamide]		340 ± 90.9	> 20000							> 20		
CC(C)CC(NC(=O)N(C)C1[C@H]2Cc3ccc(O)cc3[C@]1(C)CCN2C)C(=O)O (stereo in doubt) [Compound 76, 2-(3-((2R,6S,11S)-8-hydroxy-3,6-dimethyl-1,2,3,4,5,6-hexahydro-2,6-methanobenzo[d]azocin-11-yl)-3-methylureido)-4-methylpentanoic acid]		107 ± 1.33	811 ± 53	79.3 ± 3.48	-0.33 ± 0.67					> 20		
CN1CC[C@@]2(C)c3cc(O)ccc3C[C@@H]1[C@@H]2NCC1CCN(C(=O)OC(C)(C)C)CC1 [Compound 30, tert-butyl 4-((((2R,6S,11R)-8-hydroxy-3,6-dimethyl-1,2,3,4,5,6-hexahydro-2,6-methanobenzo[d]azocin-11-yl)amino)methyl)piperidine-1-carboxylate]		7.66 ± 1.96	270 ± 33.9	49.7 ± 3.67	0.33 ± 0.67				0.0336 ± 0.00817	> 20	91.70 ± 4.33	
CN(C(=O)Nc1ccc(C#N)cc1)[C@H]1C2Cc3ccc(O)cc3[C@@]1(C)CCN2Cc1cccc(F)c1F [Compound 89, 3-(4-cyanophenyl)-1-((6R,11R)-3-(2,3-difluorobenzyl)-8-hydroxy-6-methyl-1,2,3,4,5,6-hexahydro-2,6-methanobenzo[d]azocin-11-yl)-1-methylurea]		9.2 ± 0.9	> 20000				1.17 ± 1.01			> 20		> 20
CN(C(=O)Nc1ccc(C#N)cc1)[C@H]1C2Cc3ccc(O)cc3[C@@]1(C)CCN2CC1CC1 [Compound 80, 3-(4-cyanophenyl)-1-((6R,11R)-3-(cyclopropylmethyl)-8-hydroxy-6-methyl-1,2,3,4,5,6-hexahydro-2,6-methanobenzo[d]azocin-11-yl)-1-methylurea]		1.19 ± 0.32	216 ± 38.7	92.4 ± 3.23			113 ± 3.53		0.0002 ± 1.3e-05	> 20		
CN(C(=O)Nc1ccc(C#N)cc1)[C@H]1C2Cc3ccc(O)cc3[C@@]1(C)CCN2CC1CCC1 [Compound 88, 3-(4-cyanophenyl)-1-((6R,11R)-3-(cyclobutylmethyl)-8-hydroxy-6-methyl-1,2,3,4,5,6-hexahydro-2,6-methanobenzo[d]azocin-11-yl)-1-methylurea]		4.74 ± 1.55	7.58 ± 1.06	74.7 ± 1.86	18.5 ± 2.84		85.7 ± 2.33	0.0247 ± 0.00535	0.00167 ± 0.00016			
CN1CC[C@]2(C)c3cc(O)ccc3CC1C2N(C)c1ccc(CCS(N)(=O)=O)cc1 (stereo in doubt) [Compound 51, 2-(4-(((2R,6R,11S)-8-hydroxy-3,6-dimethyl-1,2,3,4,5,6-hexahydro-2,6-methanobenzo[d]azocin-11-yl)(methyl)amino)phenyl)ethanesulfonamide]		7.83 ± 0.95	1.44 ± 0.44	100 ± 7.22			113 ± 2.65		0.00021 ± 2.1e-05	> 20		
CN1CC[C@@]2(C)c3cc(O)ccc3C[C@@H]1[C@@H]2N(C)CC1CCN(C(=O)OC(C)(C)C)CC1 [Compound 31, tert-butyl 4-((((2R,6S,11R)-8-hydroxy-3,6-dimethyl-1,2,3,4,5,6-hexahydro-2,6-methanobenzo[d]azocin-11-yl)(methyl)amino)methyl)piperidine-1-carboxylate]		0.34 ± 0.09	12.3 ± 0.95	61 ± 3	1		94.3 ± 3.18		0.00041 ± 0.00038	> 20		
COc1ccc2c(c1)[C@@]1(C)CCN(C)C(C2)[C@@H]1CNC(=O)Cc1ccc(Cl)c(Cl)c1 [Compound 75, 2-(3,4-dichlorophenyl)-N-(((6S,11S)-8-methoxy-3,6-dimethyl-1,2,3,4,5,6-hexahydro-2,6-methanobenzo[d]azocin-11-yl)methyl)acetamide]	> 20	185 ± 51.3	62.3 ± 13.7	112 ± 2.4	0.33 ± 0.67	0.0127 ± 0.00152	104 ± 2.67					
COc1ccc2c(c1)[C@@]1(C)CCN(C)C(C2)[C@@H]1c1cccc(C(N)=O)c1 [Compound 54, 3-((6S,11R)-8-methoxy-3,6-dimethyl-1,2,3,4,5,6-hexahydro-2,6-methanobenzo[d]azocin-11-yl)benzamide]		259 ± 33.6	> 20000							> 20		
CN1CC[C@]2(C)c3cc(O)ccc3CC1[C@@H]2N1Cc2ccccc2NC1=O [Compound 91]		174 ± 25.7	409 ± 19.5	89.7 ± 5.9	34.7 ± 5.93		71.3 ± 3.53	2.81 ± 0.129	0.378 ± 0.0619			
CN1CC[C@]2(C)c3cc(O)ccc3CC1[C@H]2COc1ccc(C(N)=O)cc1 [Compound 44, 4-(((6S,11S)-8-hydroxy-3,6-dimethyl-1,2,3,4,5,6-hexahydro-2,6-methanobenzo[d]azocin-11-yl)methoxy)benzamide]	0.394 ± 0.0884	166 ± 62.3	718 ± 249	65 ± 2.52	17.7 ± 1.2							
CN[C@@H]1[C@H]2Cc3ccc(OC)cc3[C@@]1(C)CCN2CC1CC1 [Compound 56, (2R,6R,11S)-3-(cyclopropylmethyl)-8-methoxy-N,6-dimethyl-1,2,3,4,5,6-hexahydro-2,6-methanobenzo[d]azocin-11-amine]	2.58 ± 0.721	170 ± 51.9	3810 ± 726	36.7 ± 7.22	25.7 ± 1.67							
CN(C(=O)Nc1ccc(C#N)cc1)C1C2Cc3ccc(O)cc3[C@@]1(C)CCN2Cc1ccoc1 (stereo in doubt) [Compound 90, 3-(4-cyanophenyl)-1-((2R,6R,11S)-3-(furan-3-ylmethyl)-8-hydroxy-6-methyl-1,2,3,4,5,6-hexahydro-2,6-methanobenzo[d]azocin-11-yl)-1-methylurea]		1.74 ± 0.45	5.92 ± 1.82	32.7 ± 5.78	1		14 ± 1		0.00702 ± 0.00189	> 20		
CN(C(=O)Nc1ccc(C#N)cc1)[C@@H]1C2Cc3ccc(O)cc3[C@@]1(C)CCN2CC1CC1 [Compound 81, 3-(4-cyanophenyl)-1-((6R,11S)-3-(cyclopropylmethyl)-8-hydroxy-6-methyl-1,2,3,4,5,6-hexahydro-2,6-methanobenzo[d]azocin-11-yl)-1-methylurea]		36.6 ± 4.94	1230 ± 173	31.2 ± 2.87						> 20		
